Source: US10195166B2, “Methods for treating hepatitis C virus infectious disease” (priority 2013, dated 2019)
No end group written: not given here.

Legend:
Assay type in all cases: cell-based, hepatitis C virus
[1] = system: Huh7 cells infected with HCVcc; experiment: HCV RNA level after direct treatment with cell permeable GRIM19 domain peptides; conditions: 10 μM peptide for 48 hours (FIG. 12)
Protocol: In order to confirm whether an anti-HCV effect is shown when penetrating each domain itself of GRIM19 protein into cells, the effect was evaluated in in vitro HCV infection model by synthesizing peptides in which cell permeable peptide sequences (CP) bind to N-terminal of each domain of GRIM19 of Example 8. The sequences of each domain of GRIM19 comprising the synthesized cell permeable peptide sequences (CP) were analyzed in Table 4 below.
After treating Huh7 cells infected with HCVcc through in vitro HCV infection model of Example 2 with 10 μM of CP-GRIM19-D1, CP-GRIM19-D2, and CP-GRIM19-D3 for 48 hours, the level of RNA in HCV was examined.

[2] = system: HCVcc infected Huh7 cells; experiment: HCV RNA copies, GRIM19 overexpression and/or sofosbuvir in in vitro HCV infection model; conditions: transfection with pcDNA3_GRIM19 plus sofosbuvir (FIG. 10)
Protocol: HCVcc infected Huh7 cells were transfected with pcDNA3_GRIM19 using FUGENE HD, as in Example 3 above, the cells were treated with sofosbuvir (PharmaBLOCK R&D Co. Ltd.) (Formula 2):
[drawing 6] a compound inhibiting RNA-dependent RNA polymerase activity of HCV, or the cells were transfected with pcDNA3_GRIM19 and treated with sofosbuvir. Then, a change in HCV RNA copies was evaluated.

[3] = system: in vitro HCV infection model (HCVcc infected Huh7 cells); experiment: HCV RNA level after transfection with expression vectors for GRIM19 domains in in vitro HCV infection model; conditions: overexpression of the domain by transfection with expression vector (FIG. 11b)
Protocol: An expression vector which can express the […], GRIM19-D2 (aa 37-72), GRIM19-D3 (aa 73-101), and GRIM19-D4 (aa 102-144) above was prepared, and the effect of each domain was evaluated in in vitro HCV infection model in Example 2.
In order to prepare the expression vector, the gene for each domain of GRIM19 was obtained through PCR with template of the vector expressing pcDNA3_GRIM19, and each domain was subcloned into pCMV-3Tag-3A vector (Agilent Technologies, Inc.) using restriction sites of restriction enzymes EcoRI and SalI. For GRIM19-D2, GRIM19-D3, and GRIM19-D4 to be expressed in the vector, a start codon was added prior to 5′ of the actually corresponding gene sequence of GRIM19. Accordingly, for each protein fragment, methionine was added prior to the N terminus of the actually corresponding amino acid sequence of GRIM19.

[4] = system: HCVcc infected Huh7 cells; experiment: HCV replication, GRIM19 overexpression combined with DGAT-1 inhibitor; conditions: 40 μM compound of Formula 1 simultaneously with GRIM19 overexpression in HCVcc infected Huh7 cells (FIG. 9)
[5] = system: HCV; experiment: HCV RNA copies, GRIM19 overexpression combined with metformin; conditions: transfection with pcDNA3_GRIM19 plus metformin (FIG. 8)
Text: In this regard, a change in HCV RNA copies was examined in the case of administration of metformin (Sigama Aldrich, Cat. D150959), an activator of AMP-activated protein kinase (AMPK) inhibiting the activity of ACC, in combination.

## CP-GRIM19-D3: synthesized peptide, cell permeable peptide sequence (CP) at N-terminal of GRIM19 domain 3, SEQ ID NO: 16 (RRRRRRRRRPLLQAETDRRTLQMLRENLEEEAIIMKDV; CP-GRIM19-D3)
[1]
  level of HCV RNA: significantly decreased

## CC(C)OC(=O)[C@H](C)N[P@](=O)(OC[C@H]1O[C@@H](n2ccc(=O)[nH]c2=O)[C@](C)(F)[C@@H]1O)Oc1ccccc1 [sofosbuvir]
[2]
  effect of the combination on HCV: synergistic effect of inhibiting HCV
  lower increase in HCV RNA than treatment with sofosbuvir alone: ≥ 45%

## CP-GRIM19-D1: synthesized peptide, cell permeable peptide sequence (CP) at N-terminal of GRIM19 domain 1, SEQ ID NO: 14 (RRRRRRRRRMAASKVKQDMPPPGGYGPIDYKRNLPRRGLSGYSML; CP-GRIM19-D1)
[1]
  level of HCV RNA: significantly decreased

## GRIM19-D2: GRIM19 protein fragment aa 37-72 (SEQ ID NO: 8), expressed from pCMV-3Tag-3A vector (MAIGIGTLIYGHWSIMKWNRERRRLQIEDFEARIALL; also: 3Tag vector tags, position not given here)
[3]
  level of HCV RNA: significantly decreased

## GRIM19-D1: GRIM19 protein fragment aa 1-36 (SEQ ID NO: 6), expressed from pCMV-3Tag-3A vector (MAASKVKQDMPPPGGYGPIDYKRNLPRRGLSGYSML; also: 3Tag vector tags (pCMV-3Tag-3A))
[3]
  level of HCV RNA: significantly decreased

## O=C(Nc1ccccc1)Nc1ccc(-c2ccc(C(=O)[C@@H]3CCC[C@H]3C(=O)O)cc2)cc1 [A922500]
[4]
  effect of the combination on HCV replication: synergistic effect of inhibiting HCV replication

## GRIM19-D3: GRIM19 protein fragment aa 73-101 (SEQ ID NO: 10), expressed from pCMV-3Tag-3A vector (MPLLQAETDRRTLQMLRENLEEEAIIMKDV; also: 3Tag vector tags, position not given here)
[3]
  level of HCV RNA: significantly decreased

## CP-GRIM19-D2: synthesized peptide, cell permeable peptide sequence (CP) at N-terminal of GRIM19 domain 2, SEQ ID NO: 15 (RRRRRRRRRAIGIGTLIYGHWSIMKWNRERRRLQIEDFEARIALL; CP-GRIM19-D2)
[1]
  level of HCV RNA: significantly decreased

## GRIM19-D4: GRIM19 protein fragment aa 102-144 (SEQ ID NO: 12), expressed from pCMV-3Tag-3A vector (MDWKVGESVFHTTRWVPPLIGELYGLRTTEEALHASHGFMWYT; also: 3Tag vector tags (pCMV-3Tag-3A))
[3]
  level of HCV RNA: significantly decreased

## CN(C)C(=N)N=C(N)N [metformin]
[5]
  effect of the combination on HCV: synergistic effect of inhibiting HCV
  increase in HCV RNA compared with treatment with metformin alone: considerably lower
